“Also recorded” adds a separate entry of the source.
Key:
[1] = Pharmacokinetics of [3H]-FTS in the mouse brain; format: in vivo; conditions: [3H]-FTS 3 mg/kg i.p.
Experimental: Farnesyl 1-^3H-thiosalicylic acid ([^3H]-FTS), 12.5 Ci/mmol, 1 mCi/mL, was purchased from American Radiolabeled Chemicals (ARC; St. Louis, Mo., U.S.A.). The labeled drug was isotopically diluted with unlabeled FTS. Mice (ICR strain) were injected i.p. with 0.1 ml of this FTS solution (14.8 μCi, 351 nmol, 3 mg/kg). At each time point (2.5, 5, 10, 20, 60, and 120 min) after the injection, two mice were killed and their brains were removed. The forebrains were washed in PBS, weighed and homogenized, and samples were counted in a scintillation fluid using an LKB β-counter with automatic correction for quenching. Data are expressed as [^3H]-FTS in dpm/g tissue as a function of time.
First it was necessary to determine whether FTS can enter the brain, and if so, whether it can exist there in the micromolar concentration range previously found to be relevant to its efficacy as a Ras inhibitor in vitro (Kloog et al. 1999). To this end, we performed pharmacokinetic experiments in which mice received [^3H]-FTS (3 mg/kg, i.p.), and the amounts of labeled inhibitor in the brain were then determined by counting radioactivity in samples of brain homogenates. […] Based on the specific activity of [^3H]-FTS and assuming a homogeneous distribution in the brain, we estimated that the peak concentration of FTS was 4.5 μM. Thus, under the conditions employed here, it appears that a pharmacologically relevant concentration of FTS in the brain was achieved.

[2] = test system: NMDA receptors (NMDAR); experiment: NMDAR quantitative autoradiography ([3H]MK-801 binding) in brain sections of CHI mice; format: in vivo, mouse; conditions: seven days after CHI, FTS 5 mg/kg 1 hr after CHI
Experimental: Seven days after CHI, vehicle-treated (n=5) and FTS-treated (n=4) mice were decapitated and their brains were removed (within 1 minute), frozen in powdered dry ice, and kept at −70° C. until used. Consecutive 20-μ cryostat sections of the whole forebrain were cut in the coronal plane, and one in every ten sections (i.e. at intervals of 200μ) was thaw-mounted onto coated microscope glass slides.
NMDAR autoradiography was performed as described (Bowery et al., 1988), with some modifications. […] At the end of incubation, the sections were dipped for 5 seconds in ice-cold buffer, washed for 90 minutes in cold fresh buffer, and then dipped in ice-cold distilled water. The dried tissue sections were exposed to tritium-sensitive film accompanied by commercial calibrated tritium standard scales (Amersham). After exposure for 36 days, the films were developed in Kodak D-19, fixed, and dried. The sections were then stained with cresyl violet for anatomical region placement according to a mouse brain atlas (Paxinos and Franklin, 1997) and for identification of lesions.
The films were scanned and digitized using PhotoShop and a large bed Umax scanner, and saved in tiff format for accessibility to NIH image software. Using NIH Image routines, the standard curve was measured and used to calibrate regional brain measurements. Morphometry routines were used to measure the lesion area on each section where it was visible. The volume was calculated by multiplying the summed lesion areas by the distance between sections (0.2 mm).

[3] = test system: rats subjected to closed head injury (CHI); experiment: Neuroprotection, rat CHI model (NSS); format: in vivo
Experimental: Sabra (strain of the Hebrew University) rats (200-220 gr) were used. A weight (200 g) was dropped on the cone fixed on the exposed skull at the site (frontal left cortex) designated for injury (from a height of 20 cm), resulting in a focal injury. A maximal Neurological Severity Score (NSS) of 17 indicates severe neurological dysfunction, with failure of all tasks, whereas a score of zero is achieved by healthy uninjured animals. The NSS at 1 h after trauma reflects the initial severity of injury and is inversely correlated with neurological outcome. […] To assess the effect of FTS on neurological recovery, rats were randomly assigned to either vehicle or FTS treatment, given immediately after the initial NSS evaluation (at 1 hr after CHI). These assessments were performed by an observer blinded to the kind of treatment the animals have received. The extent of recovery (ΔNSS) was calculated as the difference between NSS at 1 hr and that at any later time point: ΔNSS (at time t)=NSS (1 h)−NSS (t).
Thus, the greater ΔNSS reflects greater recovery, and this parameter serves as a tool for evaluation of drug effects.

[4] = left (ipsilateral) hemisphere, mean ± SD, 4 mice
[5] = right (contra-lateral) hemisphere, mean ± SD, 4 mice
[6] = FTS 5 mg/kg bw ip 1 h after CHI, mean ± SD of 7 rats

CC(C)=CCC/C(C)=C/CC/C(C)=C/CSc1ccccc1C(=O)O [FTS, farnesyl-thiosalicylic acid]
entry of FTS into the brain ([1]; mouse): enters the mouse brain; also recorded: crosses the blood-brain barrier | time for which FTS amounts in the brain remain relatively high ([1]; mouse forebrain): at least 2 hrs | time to peak amounts of FTS in the brain ([1]; mouse forebrain): 20 to 30 min | peak concentration of FTS in the brain ([1]; estimated from specific activity assuming homogeneous distribution in the brain): 4.5 µM | effect of trauma on the binding of [3H]-MK-801 to the NMDA receptors ([2]; ANOVA, no significant difference between sides (P=0.5)): completely reversed | NMDA-receptor density, dorsal striatum, left [2, 4]: 4.32 ± 0.32 nCi of [^3H]-MK-801 specifically bound/mg | NMDA-receptor density, frontal motor cortex, left [2, 4]: 6.32 ± 2.12 nCi of [^3H]-MK-801 specifically bound/mg | NMDA-receptor density, hippocampus CA1, left [2, 4]: 9.85 ± 1.34 nCi of [^3H]-MK-801 specifically bound/mg | NMDA-receptor density, hippocampus CA3, left [2, 4]: 7.69 ± 0.96 nCi of [^3H]-MK-801 specifically bound/mg | NMDA-receptor density, parietal cortex, left [2, 4]: 5.69 ± 1.18 nCi of [^3H]-MK-801 specifically bound/mg | NMDA-receptor density, perirhinal cortex, left [2, 4]: 5.92 ± 0.72 nCi of [^3H]-MK-801 specifically bound/mg | NMDA-receptor density, piriform cortex, left [2, 4]: 5.65 ± 1.54 nCi of [^3H]-MK-801 specifically bound/mg | NMDA-receptor density, ventral striatum, left [2, 4]: 4.06 ± 1.82 nCi of [^3H]-MK-801 specifically bound/mg | NMDA-receptor density, dorsal striatum, right [2, 5]: 5.45 ± 1.72 nCi of [^3H]-MK-801 specifically bound/mg | NMDA-receptor density, frontal motor cortex, right [2, 5]: 6.63 ± 1.7 nCi of [^3H]-MK-801 specifically bound/mg | NMDA-receptor density, hippocampus CA1, right [2, 5]: 9.25 ± 0.32 nCi of [^3H]-MK-801 specifically bound/mg | NMDA-receptor density, hippocampus CA3, right [2, 5]: 7.23 ± 0.42 nCi of [^3H]-MK-801 specifically bound/mg | NMDA-receptor density, parietal cortex, right [2, 5]: 7.04 ± 1.46 nCi of [^3H]-MK-801 specifically bound/mg | NMDA-receptor density, perirhinal cortex, right [2, 5]: 5.97 ± 0.88 nCi of [^3H]-MK-801 specifically bound/mg | NMDA-receptor density, piriform cortex, right [2, 5]: 5.57 ± 0.84 nCi of [^3H]-MK-801 specifically bound/mg | NMDA-receptor density, ventral striatum, right [2, 5]: 5.21 ± 0.54 nCi of [^3H]-MK-801 specifically bound/mg | Neurological Severity Score (NSS) 1 h ([3]; 1 h after CHI, before treatment (baseline), maximal score 17, mean ± SD of 7 rats): 9.71 ± 1.97 | ΔNSS = NSS (1 h) − NSS (time), 24 h [3, 6]: 1.86 ± 1.34 | ΔNSS = NSS (1 h) − NSS (time), 3 d [3, 6]: 3.00 ± 1.29 | ΔNSS = NSS (1 h) − NSS (time), 7 d ([3]; FTS 5 mg/kg bw ip 1 h after CHI, mean ± SD of 7 rats, p = 0.019 vs control): 5.14 ± 1.07
